How the values were obtained:
[1] = Stability of Nanoemulsion Concentrate 3 (α-tocopherol and Vitamin B12 content) by LCMSMS; assay type: physicochemical; details: for Stability of α-tocopherol in Nanoemulsion Concentrate 3: average of triplicate
Experimental: At each time period (0, 7, 28, 60, 120, 150 and 180 days), triplicate samples were analysed for content of α-tocopherol and Vitamin B12.
(FIGS. 14 and 15, Table 13). Data reported in Table 13 and plotted in FIGS. 14 and 15 are average values of the triplicate measurements taken.

[2] = Stability of cannabinoid entourage and Vitamin E components of the powder concentrate by LCMSMS; assay type: physicochemical; details: powder stored at 21-25° C.
Experimental: At each time period, 0.05 g of powder was dissolved in 10 ml-15 of ethanol, diluted to fall within the analytical range, and injected into the LCMSMS for analysis.

SMILES: Cc1c(C)c2c(c(C)c1O)CC[C@@](C)(CCC[C@H](C)CCC[C@H](C)CCCC(C)C)O2 [α-Tocopherol]
- Stability of α-tocopherol in Nanoemulsion Concentrate 3 ([1]; Refrigerated (2-4° C.), 0 days): 0.25 mg/mL
- Stability of α-tocopherol in Nanoemulsion Concentrate 3 ([1]; Refrigerated (2-4° C.), 7 days): 0.25 mg/mL
- Stability of α-tocopherol in Nanoemulsion Concentrate 3 ([1]; Refrigerated (2-4° C.), 28 days): 0.23 mg/mL
- Stability of α-tocopherol in Nanoemulsion Concentrate 3 ([1]; Refrigerated (2-4° C.), 60 days): 0.26 mg/mL
- Stability of α-tocopherol in Nanoemulsion Concentrate 3 ([1]; Refrigerated (2-4° C.), 120 days): 0.26 mg/mL
- Stability of α-tocopherol in Nanoemulsion Concentrate 3 ([1]; Refrigerated (2-4° C.), 150 days): 0.23 mg/mL
- Stability of α-tocopherol in Nanoemulsion Concentrate 3 ([1]; Refrigerated (2-4° C.), 180 days): 0.27 mg/mL
- Stability of α-tocopherol in Nanoemulsion Concentrate 3 ([1]; Room Temperature (21-25° C.), 0 days): 0.25 mg/mL
- Stability of α-tocopherol in Nanoemulsion Concentrate 3 ([1]; Room Temperature (21-25° C.), 7 days): 0.21 mg/mL
- Stability of α-tocopherol in Nanoemulsion Concentrate 3 ([1]; Room Temperature (21-25° C.), 28 days): 0.22 mg/mL
- Stability of α-tocopherol in Nanoemulsion Concentrate 3 ([1]; Room Temperature (21-25° C.), 60 days): 0.23 mg/mL
- Stability of α-tocopherol in Nanoemulsion Concentrate 3 ([1]; Room Temperature (21-25° C.), 120 days): 0.20 mg/mL
- Stability of α-tocopherol in Nanoemulsion Concentrate 3 ([1]; Room Temperature (21-25° C.), 150 days): 0.21 mg/mL
- Stability of α-tocopherol in Nanoemulsion Concentrate 3 ([1]; Room Temperature (21-25° C.), 180 days): 0.17 mg/mL
- stability in Nanoemulsion Concentrate 3 (in words) ([1]; after 180 days stored at 21-25° C.): some slight degradation
- stability in Nanoemulsion Concentrate 3 (in words) ([1]; stored at 2-4° C., 180 days): high degree of stability
- Stability of Vitamin Es in Powder Concentrate ([2]; 0 days): 4.85 mg/g powder
- Stability of Vitamin Es in Powder Concentrate ([2]; 1 days): 4.89 mg/g powder
- Stability of Vitamin Es in Powder Concentrate ([2]; 2 days): 4.79 mg/g powder
- Stability of Vitamin Es in Powder Concentrate ([2]; 3 days): 4.69 mg/g powder
- Stability of Vitamin Es in Powder Concentrate ([2]; 5 days): 4.99 mg/g powder
- Stability of Vitamin Es in Powder Concentrate ([2]; 8 days): 4.69 mg/g powder
- Stability of Vitamin Es in Powder Concentrate ([2]; 9 days): 4.75 mg/g powder
- Stability of Vitamin Es in Powder Concentrate ([2]; 10 days): 4.77 mg/g powder
- Stability of Vitamin Es in Powder Concentrate ([2]; 11 days): 5.04 mg/g powder
- Stability of Vitamin Es in Powder Concentrate ([2]; 12 days): 5.01 mg/g powder
- Stability of Vitamin Es in Powder Concentrate ([2]; 15 days): 5.07 mg/g powder
- Stability of Vitamin Es in Powder Concentrate ([2]; 16 days): 4.96 mg/g powder
- Stability of Vitamin Es in Powder Concentrate ([2]; 17 days): 4.94 mg/g powder
- Stability of Vitamin Es in Powder Concentrate ([2]; 18 days): 4.77 mg/g powder
- Stability of Vitamin Es in Powder Concentrate ([2]; 19 days): 5.04 mg/g powder
- Stability of Vitamin Es in Powder Concentrate ([2]; 22 days): 4.94 mg/g powder
- Stability of Vitamin Es in Powder Concentrate ([2]; 23 days): 4.91 mg/g powder
- Stability of Vitamin Es in Powder Concentrate ([2]; 24 days): 5.00 mg/g powder
- Stability of Vitamin Es in Powder Concentrate ([2]; 25 days): 5.06 mg/g powder
- Stability of Vitamin Es in Powder Concentrate ([2]; 26 days): 4.84 mg/g powder
- Stability of Vitamin Es in Powder Concentrate ([2]; 29 days): 4.85 mg/g powder
- Stability of Vitamin Es in Powder Concentrate ([2]; 30 days): 4.83 mg/g powder
- Stability of Vitamin Es in Powder Concentrate ([2]; 60 days): 4.91 mg/g powder
- Stability of Vitamin Es in Powder Concentrate ([2]; 90 days): 4.96 mg/g powder
- Stability of Vitamin Es in Powder Concentrate ([2]; 120 days): 4.93 mg/g powder
- Stability of Vitamin Es in Powder Concentrate ([2]; 150 days): 4.69 mg/g powder
- Stability of Vitamin Es in Powder Concentrate ([2]; 180 days): 4.70 mg/g powder
- Stability of Vitamin Es in Powder Concentrate ([2]; 210 days): 4.84 mg/g powder
- Stability of Vitamin Es in Powder Concentrate ([2]; 240 days): 5.03 mg/g powder
- Stability of Vitamin Es in Powder Concentrate ([2]; 270 days): 4.78 mg/g powder
- Stability of Vitamin Es in Powder Concentrate ([2]; 300 days): 4.81 mg/g powder
- Stability of Vitamin Es in Powder Concentrate ([2]; 330 days): 4.81 mg/g powder
- Stability of Vitamin Es in Powder Concentrate ([2]; 360 days): 4.83 mg/g powder
- Stability of Vitamin Es in Powder Concentrate ([2]; 390 days): 4.91 mg/g powder
- Stability of Vitamin Es in Powder Concentrate ([2]; 420 days): 4.69 mg/g powder
- Stability of Vitamin Es in Powder Concentrate ([2]; 450 days): 5.00 mg/g powder
- Stability of Vitamin Es in Powder Concentrate ([2]; 480 days): 4.98 mg/g powder
- Stability of Vitamin Es in Powder Concentrate ([2]; 510 days): 5.02 mg/g powder
- Stability of Vitamin Es in Powder Concentrate ([2]; 540 days): 5.03 mg/g powder
- Stability of Vitamin Es in Powder Concentrate ([2]; 570 days): 4.72 mg/g powder
